From patent US20250257041A1, “INDUCERS OF INTEGRATED STRESS RESPONSE TO TREAT CANCER” (The Board of Regents of The University of Texas System, priority 2022, published 2025)
Where two headings read alike, the source gives them in different places.

Tests used:
[1] = test system: HCT116 WT; assay: Proliferation of HCT116 colorectal cell line, Cell TiterGlo; format: cell-based, human
In short: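 HCT116 colorectal cells, wild type, GCN2 CRISPR knockout, or wild type plus ISRIB; proliferation read by CellTiter-Glo luminescence. 10-point dose response in triplicate, IC50 reported; multiple values are independent experiments.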

[2] = test system: HCT116 GCN2KO; assay: Proliferation of HCT116 cells with GCN2 knocked out (CRISPR), Cell TiterGlo; format: cell-based, human; details: for IC50: Homo sapiens
Experimental: Briefly, compounds were tested for their effect on proliferation of HCT116 colorectal cell lines using Cell TiterGlo (Promega). Each compound was tested in a 10-point dose response experiment in triplicate. Multiple values in the column titled HCT116 WT reflect separate independent experiments. The three columns titled “HCT116 WT (repeat)”, “HCT116-CGN2KO” and “HCT116 WT+ISRIB” provide data for selected compounds that were tested simultaneously under three conditions. The HCT116 WT column lists IC50 against the wild type HCT116 colorectal cancer cell line. The HCT116-CGN2KO lists IC50 data for cells in which one component of the integrated stress response, GCN2, has been knocked out using CRISPR technology.

[3] = test system: Jurkat cells; assay: Jurkat cell proliferation over three days, Cell Titer Glo; format: cell-based, human
Experimental: (§1) FIG. 5A provides cell proliferation studies using Jurkat cells using exemplary novel compounds provided in the current disclosure. Jurkat cells, which are derived from a human leukemia, were incubated with varying concentrations of SW388710. Cell proliferation over three days was evaluated using luminescence from Cell Titer Glo (Promega) which reflects ATP levels.
as §1, with “5B” for “5A”, “SW393071.” for “SW388710.”

[4] = test system: phospho-GCN2; assay: Western blot for phospho-GCN2 in HCT116 wild-type and RPS23 mutant cells; format: cell-based, human; details: wild-type HCT116 versus RPS23 del R107-G109 mutant
Experimental: FIG. 12 is a western blot analysis showing the RPS23 is required for induction of GCN2 phosphorylation by SW710 (SW388710). Cells were incubated with SW710, lysed, then evaluated via western blot for phospho-GCN2, a marker of activation of the integrated stress response.
To confirm this hypothesis, wild-type HCT116 cells and HCT116 RPS23 del R107-G109 mutant cells were incubated with SW388710. Cells were lysed and evaluated via western blot for phospho-GCN2, a marker of activation of the integrated stress response.

[5] = test system: Jurkat (Leukemia) cells; assay: Jurkat viability and cytotoxicity, GF-AFC and Cytox; format: cell-based, human; details: varying doses
Experimental: FIG. 6A provides cytotoxicity studies for leukemia cells (Jurkat) with compound SW388710. […] Jurkat (Leukemia) cells were incubated with varying doses of SW388710.

[6] = test system: HCT-116 (colorectal) cells; assay: HCT-116 viability and cytotoxicity, GF-AFC and Cytox; format: cell-based, human; details: varying doses
Experimental: FIG. 6B provided cytostatic data for colorectal cells, with compound SW388710. […] HCT-116 (colorectal) cells were incubated with varying doses of SW388710.

[7] = Solubility remark printed in the HCT116 WT column; format: physicochemical; details: cell wraps over r19 and r20: poor solubility
[8] = biological target: T1, RPS23 (Homo sapiens, UniProt P62266); assay: Photo-crosslinking in HCT116 cells, biotin-azide click, streptavidin pull-down, western blot for RPS23; format: binding; details: HCT116 wild-type or RPS23 del R107-G109 mutant, UV irradiation
T1 construct: endogenous in cells; host or cells: HCT116
Experimental: Next HCT116 cells were incubated with SW393071 analogs conjugated to a photo-crosslinker (analogs: SW393065, SW393212 and SW393213), and irradiated with UV light. The cells were lysed and click-conjugated to biotin-azide. Drug-bound proteins were pulled down with streptavidin coated beads and resolved on an SDS-PAGE gel.
Wild-type or RPS23 del R107-G109 knock-in mutant HCT116 cells were incubated with photo-crosslinker analog SW393212 and irradiated with UV light. The cells were lysed, and click-conjugated to biotin-azide essentially as shown in Example 7. Drug-bound proteins were pulled down with streptavidin coated beads and resolved on an SDS-PAGE gel.

[9] = Homo sapiens, HCT-116, wild type HCT116, 10-point dose response in triplicate, multiple values = separate independent experiments, read-out: HCT116 IC50 (uM) HCT116 WT
[10] = Homo sapiens, HCT-116, wild type HCT116, tested simultaneously with GCN2KO and +ISRIB, read-out: HCT116 IC50 (uM) HCT116 WT (repeat)
[11] = wild type HCT116, compound plus 10 nM of ISRIB, read-out: HCT116 IC50 (uM) HCT116 WT + ISRIB
[12] = HCT-116, HCT116 cells with GCN2 knocked out using CRISPR, read-out: HCT116 IC50 (uM) HCT116 − GCN2KO

Compound | IC50 [1, 9] [µM] | IC50 [1, 10] [µM] | IC50 [1, 11] [µM] | IC50 [2, 12] [µM] | also measured
Cn1nc(-c2ccc(NC(=O)c3ccccc3)cc2)cc1NC(=O)c1ccc(C(=O)c2ccccc2)cc1 [SW389003, N-(3-(4-Benzamidophenyl)-1-methyl-1H-pyrazol-5-yl)-4-benzoylbenzamide] |  |  |  |  | IC50 ([1]; Homo sapiens, HCT-116, read-out: HCT116 IC50 (uM) HCT116 WT (repeat)): ≥ 50 µM; IC50 ([2]; HCT-116, read-out: HCT116 IC50 (uM) HCT116 − GCN2KO): ≥ 50 µM; Solubility (remark in place of an IC50) [7]: poor
Cn1nc(-c2ccc(NC(=O)c3ccccc3Cl)cc2)cc1NC(=O)c1cccc(C2(C(F)(F)F)N=N2)c1 [SW393172, 2-Chloro-N-(4-(1-methyl-5-(3-(3-(trifluoromethyl)-3H-diazirin-3-yl)benzamido)-1H-pyrazol-3-yl)phenyl)benzamide] | 3.6 | 5.08 | 5.25 | 4.37 | 
C#CCN(C(=O)c1ccccc1Cl)c1ccc(-c2cc(NC(=O)c3cccc(C4(C(F)(F)F)N=N4)c3)n(C)n2)cc1 [SW393173, 2-Chloro-N-(4-(1-methyl-5-(3-(3-(trifluoromethyl)-3H-diazirin-3-yl)benzamido)-1H-pyrazol-3-yl)phenyl)-N-(prop-2-yn-1-yl)benzamide] | 2.4 | 4 | 3.11 | 2.9 | 
C#CCN(C(=O)c1ccccc1Cl)c1ccc(-c2cc(NC(=O)c3ccccc3)n(C)n2)cc1 [SW393174, N-(4-(5-Benzamido-1-methyl-1H-pyrazol-3-yl)phenyl)-2-chloro-N-(prop-2-yn-1-yl)benzamil-de] | 6.1 | 7.18 | 6.52 | 6.37 | 
C#Cc1cccc(C(=O)Nc2cc(-c3ccc(NC(=O)c4cc(N=[N+]=[N-])ccc4Cl)cc3)nn2C)c1 [SW393212, 5-Azido-2-chloro-N-(4-(5-(3-ethynylbenzamido)-1-methyl-1H-pyrazol-3-yl)phenyl)benza-mide] | 0.72 |  |  |  | RPS23 bands after photo-crosslinking pull-down [8]: bands from WT but not RPS23 mutant cells

More lines, main results first:

IC50 [1, 9] [µM] | IC50 [1, 10] [µM] | IC50 [1, 11] [µM] | IC50 [2, 12] [µM] | Compound | also measured
0.23 | 0.21 | 1.89 | 1.95 | COc1cccc(C(=O)Nc2cc(-c3ccc(NC(=O)c4ccccc4)cc3)nn2C)c1 [SW388710, N-(3-(4-Benzamidophenyl)-1-methyl-1H-pyrazol-5-yl)-3-methoxybenzamide] | Resistance on knockout of GCN2 ([2]; HCT116, GCN2 but not other activating kinases): confers resistance; IC50 ([3]; Homo sapiens, Jurkat, 72 h, three days, Cell Titer Glo luminescence): 0.0782 µM; Effect of ISRIB on anti-proliferative activity in Jurkat cells ([3]; addition of 10 nM of ISRIB): relative resistance; Activation of the ISR (phosphorylation of GCN2) [4]: Wild-type but not RPS23 mutant cells, showed activation of the ISR; Cell death in leukemic cells [5]: induces cell death in leukemic cells; Proliferation of colorectal cancer cells [6]: reduces the proliferation of colorectal cancer cells
0.19 | 0.49 | 2.33 | 2.78 | Cn1nc(-c2ccc(NC(=O)c3cc(N=[N+]=[N-])ccc3Cl)cc2)cc1NC(=O)c1ccccc1 [SW393171, 5-azido-N-(4-(5-benzamido-1-methyl-1H-pyrazol-3-yl)phenyl)-2-chlorobenzamide] | 
